Assays:
Type in all cases: in vivo
[1] = system: Ipomea; assay: Pre-emergence herbicidal activity (Example 31); settings: after three weeks
How it was run: (§1)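 Visual damage score at three weeks: 0 = 0–25% damage, 3 = 75–99% kill, 3+ = 100% kill. Soil boxes with seeds sown 2 cm deep were sprayed before emergence with water-diluted emulsifiable concentrate or suspension, then grown in a glasshouse alongside unsprayed controls.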

[2] = system: Japanese millet; assay: Pre-emergence herbicidal activity (Example 31); settings: after three weeks
How it was run: as §1

[3] = system: Mustard; assay: Pre-emergence herbicidal activity (Example 31); settings: after three weeks
How it was run: as §1

[4] = system: Sunflower; assay: Pre-emergence herbicidal activity (Example 31); settings: after three weeks
How it was run: as §1

[5] = system: Wheat; assay: Post-emergence herbicidal activity (Example 32); set-up: key: 0-3 scale: 0 = 0-25% damage, 3 = 75-99% kill, 3+ = 100% kill; settings: 3 weeks after spraying
How it was run: (§2)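 Seeds sown in soil 2 cm deep; monocots and dicots in separate boxes. Seedlings grown under glass to 10–12.5 cm, then sprayed with aqueous dilutions of emulsifiable concentrate or suspension formulations. Boxes returned to glasshouse for 3 weeks and injury rated visually (0–3, 3+ total kill).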

[6] = system: Ipomea; assay: Post-emergence herbicidal activity (Example 32); settings: 3 weeks after spraying
How it was run: as §2

[7] = system: Japanese millet; assay: Post-emergence herbicidal activity (Example 32); settings: 3 weeks after spraying
How it was run: as §2

[8] = system: Mustard; assay: Post-emergence herbicidal activity (Example 32); settings: 3 weeks after spraying
How it was run: as §2

[9] = system: Ryegrass; assay: Post-emergence herbicidal activity (Example 32); settings: 3 weeks after spraying
How it was run: as §2

[10] = system: Sunflower; assay: Post-emergence herbicidal activity (Example 32); settings: 3 weeks after spraying
How it was run: as §2

[11] = system: Cotton; assay: Pre-emergence herbicidal test, fibre trays (Example 33); settings: 2.0 kg/ha, after 21 days
How it was run: (§3)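 0–5 visual scores vs untreated controls; 5 = complete kill, 0 = 0–20% damage. Pre-em fibre trays: sow in slit, level, spray, top with thin soil, read 21 d. Post-em: spray young pot plants, read 14 d.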

[12] = system: Ipomea purpurea; assay: as above; settings: 2.0 kg/ha, after 21 days
How it was run: as §3

[13] = system: Rape; assay: as above; settings: 2.0 kg/ha, after 21 days
How it was run: as §3

[14] = system: Senecio vulgaris; assay: as above; settings: 2.0 kg/ha, after 21 days
How it was run: as §3

[15] = system: Soy bean; assay: as above; settings: 2.0 kg/ha, after 21 days
How it was run: as §3

[16] = system: Sugar beet; assay: as above; settings: 2.0 kg/ha, after 21 days
How it was run: as §3

[17] = system: Winter wheat; assay: as above; settings: 2.0 kg/ha, after 21 days
How it was run: as §3

[18] = system: Amaranthus retroflexus; assay: Post-emergence herbicidal test, young pot plants (Example 33); settings: 2.0 kg/ha, after 14 days
How it was run: as §3

[19] = system: Chenopodium album; assay: as above; settings: 2.0 kg/ha, after 14 days
How it was run: as §3

[20] = system: Cotton; assay: as above; settings: 2.0 kg/ha, after 14 days
How it was run: as §3

[21] = system: Ipomea purpurea; assay: as above; settings: 2.0 kg/ha, after 14 days
How it was run: as §3

[22] = system: Soy bean; assay: as above; settings: 2.0 kg/ha, after 14 days
How it was run: as §3

[23] = system: Sugar beet; assay: as above; settings: 2.0 kg/ha, after 14 days
How it was run: as §3

Row | SMILES | damage to plants, Ip ([1]; 1 kg/ha) | damage to plants, Ip ([1]; 5 kg/ha) | damage to plants, Jm ([2]; 1 kg/ha) | damage to plants, Jm ([2]; 5 kg/ha) | damage to plants, Ms ([3]; 1 kg/ha) | damage to plants, Ms ([3]; 5 kg/ha) | damage to plants, Sf ([4]; 1 kg/ha) | damage to plants, Sf ([4]; 5 kg/ha) | damage to plants, Wh ([5]; 1 kg/ha) | damage to plants, Wh ([5]; 5 kg/ha) | damage to plants, Ip ([6]; 1 kg/ha) | damage to plants, Ip ([6]; 5 kg/ha) | damage to plants, Jm ([7]; 1 kg/ha) | damage to plants, Jm ([7]; 5 kg/ha) | damage to plants, Ms ([8]; 1 kg/ha) | damage to plants, Ms ([8]; 5 kg/ha) | damage to plants, Rg ([9]; 1 kg/ha) | damage to plants, Rg ([9]; 5 kg/ha) | damage to plants, Sf ([10]; 1 kg/ha) | damage to plants, Sf ([10]; 5 kg/ha) | further results
1 | COC(=O)C(C)Oc1ccc(N(C)c2ccc(Cl)cc2Cl)cc1 (stereo not drawn) [Compound 1, Methyl 2-[4-(2,4-dichloro-N-methylanilino)phenoxy]-propionate] | 0 (0 represents from 0 to 25% damage) | 0 (0 represents from 0 to 25% damage) | 0 (0 represents from 0 to 25% damage) | 0 (0 represents from 0 to 25% damage) | 0 (0 represents from 0 to 25% damage) | 0 (0 represents from 0 to 25% damage) | 0 (0 represents from 0 to 25% damage) | 0 (0 represents from 0 to 25% damage) | 0 (0 represents 0 to 25% damage) | 1 | 0 (0 represents 0 to 25% damage) | 0 (0 represents 0 to 25% damage) | 3+ (3+ represents 100% kill) | 3+ (3+ represents 100% kill) | 0 (0 represents 0 to 25% damage) | 0 (0 represents 0 to 25% damage) | 3+ (3+ represents 100% kill) | 3+ (3+ represents 100% kill) | 0 (0 represents 0 to 25% damage) | 0 (0 represents 0 to 25% damage) | herbicidal damage, Ct [11]: 0 (0 is 0 to 20% damage); herbicidal damage, Ip [12]: 0 (0 is 0 to 20% damage); herbicidal damage, Rp [13]: 2; herbicidal damage, Sn [14]: 0 (0 is 0 to 20% damage); herbicidal damage, Sy [15]: 2; herbicidal damage, Sb [16]: 0 (0 is 0 to 20% damage); herbicidal damage, Ww [17]: 0 (0 is 0 to 20% damage); damage to test plants, Am [18]: 2; damage to test plants, Ca [19]: 3; damage to test plants, Ct [20]: 1; damage to test plants, Ip [21]: 0 (0 is 0 to 20% damage); damage to test plants, Sy [22]: 1; damage to test plants, Sb [23]: 3
2 | C#CCN(c1ccc(OC(C)C(=O)OC)cc1)c1ccc(C(F)(F)F)cc1[N+](=O)[O-] (stereo not drawn) [Compound 81] | 0 (0 represents from 0 to 25% damage) | 0 (0 represents from 0 to 25% damage) | 3+ (3+ represents 100% kill) | 3+ (3+ represents 100% kill) | 0 (0 represents from 0 to 25% damage) | 0 (0 represents from 0 to 25% damage) | 0 (0 represents from 0 to 25% damage) | 0 (0 represents from 0 to 25% damage) | 2 | 3 (3 represents 75 to 99% kill) | 0 (0 represents 0 to 25% damage) | 0 (0 represents 0 to 25% damage) | 3+ (3+ represents 100% kill) | 3+ (3+ represents 100% kill) | 0 (0 represents 0 to 25% damage) | 0 (0 represents 0 to 25% damage) | 3 (3 represents 75 to 99% kill) | 3+ (3+ represents 100% kill) | 0 (0 represents 0 to 25% damage) | 0 (0 represents 0 to 25% damage) | herbicidal damage, Ct [11]: 0 (0 is 0 to 20% damage); herbicidal damage, Ip [12]: 0 (0 is 0 to 20% damage); herbicidal damage, Rp [13]: 0 (0 is 0 to 20% damage); herbicidal damage, Sn [14]: 0 (0 is 0 to 20% damage); herbicidal damage, Sy [15]: 0 (0 is 0 to 20% damage); herbicidal damage, Sb [16]: 0 (0 is 0 to 20% damage); herbicidal damage, Ww [17]: 4; damage to test plants, Am [18]: 0 (0 is 0 to 20% damage); damage to test plants, Ca [19]: 0 (0 is 0 to 20% damage); damage to test plants, Ct [20]: 0 (0 is 0 to 20% damage); damage to test plants, Ip [21]: 0 (0 is 0 to 20% damage); damage to test plants, Sy [22]: 0 (0 is 0 to 20% damage); damage to test plants, Sb [23]: 3
3 | COC(=O)C(C)Oc1ccc(Nc2ccc(Br)cc2[N+](=O)[O-])cc1 (stereo not drawn) [Compound 29] | 0 (0 represents from 0 to 25% damage) | 0 (0 represents from 0 to 25% damage) | 2 | 3 (3 represents 75 to 99% kill) | 0 (0 represents from 0 to 25% damage) | 0 (0 represents from 0 to 25% damage) | 0 (0 represents from 0 to 25% damage) | 0 (0 represents from 0 to 25% damage) | 2 | 3+ (3+ represents 100% kill) | 0 (0 represents 0 to 25% damage) | 0 (0 represents 0 to 25% damage) | 3 (3 represents 75 to 99% kill) | 3+ (3+ represents 100% kill) | 0 (0 represents 0 to 25% damage) | 0 (0 represents 0 to 25% damage) | 3 (3 represents 75 to 99% kill) | 3+ (3+ represents 100% kill) | 0 (0 represents 0 to 25% damage) | 0 (0 represents 0 to 25% damage) | herbicidal damage, Ct [11]: 0 (0 is 0 to 20% damage); herbicidal damage, Ip [12]: 0 (0 is 0 to 20% damage); herbicidal damage, Rp [13]: 0 (0 is 0 to 20% damage); herbicidal damage, Sn [14]: 3; herbicidal damage, Sy [15]: 0 (0 is 0 to 20% damage); herbicidal damage, Sb [16]: 0 (0 is 0 to 20% damage); herbicidal damage, Ww [17]: 3; damage to test plants, Am [18]: 0 (0 is 0 to 20% damage); damage to test plants, Ca [19]: 0 (0 is 0 to 20% damage); damage to test plants, Ct [20]: 0 (0 is 0 to 20% damage); damage to test plants, Ip [21]: 0 (0 is 0 to 20% damage); damage to test plants, Sy [22]: 2; damage to test plants, Sb [23]: 0 (0 is 0 to 20% damage)

From patent EP0013144A1, “Substituted diphenylamine derivatives, compositions and herbicidal uses thereof, and processes for their preparation” (ICI AUSTRALIA LIMITED, priority 1978, dated 1980)
